In brackets after ≈: the same amount, converted by molar mass. Where two headings read alike, the source gives them in different places.
Experiments:
Alcaligenes Faecolis A1 = assay: MIC by agar dilution method; format: cell-based; conditions: Alcaligenes Faecolis A1; agar dilution, 37° C., 18 hours; read-out: MIC
Experimental: (§1) The MIC is measured by an agar dilution method based on the standard method of the Japanese Society of Chemotherapy (Japanese Society of Chemotherapy: The Revised Method of Determination of MIC Values, Chemotherapy 22, 1126-1128, […]). Specifically, the antibiotic is serially diluted with a 1/50 M phosphate buffer at a pH of 7.3 to prepare a twofold dilution series. One milliliter of each dilution and 9 ml of an agar medium (Heart Infusion Agar; a product of Difco Laboratories) are mixed and allowed to solidify in a Petri dish having a diameter of 9 cm. One loopful of the stock culture of the test microbe is inoculated in trypto-soy buillon (a product of Eiken Kagaku Co., Ltd.) and incubated at 37° C. for 18 hours. The resulting culture broth is diluted to a concentration of about 10^6 cells/ml with physiological saline and inoculated on the agar plate by means of a microplanter.

[1] = system: Bacillus subtillis ATCC 6633; assay: MIC by agar dilution method; format: cell-based
Experimental: as §1

[2] = system: Citrobacter Freundii GN346; assay: MIC by agar dilution method; format: cell-based; conditions: 37° C., 18 hours
Experimental: as §1

Comamonas terrigena B996 = assay: MIC by agar dilution method; format: cell-based; conditions: 37° C., 18 hours
Experimental: as §1

E. coli RGN823 = assay: MIC by agar dilution method; format: cell-based; conditions: Escherichia coli, 37° C., 18 hours
Experimental: as §1

Ent. cloacae 45 = assay: MIC by agar dilution method; format: cell-based; conditions: Enterobacter cloacae, 37° C., 18 hours
Experimental: as §1

Ent. sp. E8 = assay: MIC by agar dilution method; format: cell-based; conditions: Ent. sp. E8; agar dilution, 37° C., 18 hours; read-out: MIC
Experimental: as §1

[3] = system: Enterobacter aerogenes E19; assay: MIC by agar dilution method; format: cell-based; conditions: Klebsiella aerogenes, 37° C., 18 hours
Experimental: as §1

Escherichia coli K-12 = assay: MIC by agar dilution method; format: cell-based; conditions: K12; Escherichia coli K-12; agar dilution, 37° C., 18 hours; read-out: MIC
Experimental: as §1

[4] = system: Klebsiella pneumoniae K13; assay: MIC by agar dilution method; format: cell-based; conditions: 37° C., 18 hours
Experimental: as §1

P. rettgeri P7 = assay: MIC by agar dilution method; format: cell-based; conditions: Providencia rettgeri; P. rettgeri P7; agar dilution, 37° C., 18 hours; read-out: MIC
Experimental: as §1

P. vulgaris GN76 = assay: MIC by agar dilution method; format: cell-based; conditions: Proteus vulgaris, 37° C., 18 hours
Experimental: as §1

Proteus mirabilis P6 = assay: MIC by agar dilution method; format: cell-based; conditions: Proteus mirabilis P6; agar dilution, 37° C., 18 hours; read-out: MIC
Experimental: as §1

Providencia sp. P8 = assay: MIC by agar dilution method; format: cell-based; conditions: Providencia sp. P8; agar dilution, 37° C., 18 hours; read-out: MIC
Experimental: as §1

Ps. aeruginosa NCTC10490 = assay: MIC by agar dilution method; format: cell-based; conditions: Pseudomonas aeruginosa, 37° C., 18 hours
Experimental: as §1

[5] = system: Pseudomonas aenginosa IFO3445; assay: MIC by agar dilution method; format: cell-based; conditions: 37° C., 18 hours
Experimental: as §1

S. aureus Russell = assay: MIC by agar dilution method; format: cell-based; conditions: Staphylococcus aureus
Experimental: as §1

S. aureus Smith = assay: MIC by agar dilution method; format: cell-based; conditions: Staphylococcus aureus, 37° C., 18 hours
Experimental: as §1

S. epidermidis = assay: MIC by agar dilution method; format: cell-based; conditions: Staphylococcus epidermidis, 37° C., 18 hours
Experimental: as §1

Sarcina lutea S19 = assay: MIC by agar dilution method; format: cell-based; conditions: Micrococcus luteus, 37° C., 18 hours
Experimental: as §1

Ser. marcesceus T55 = assay: MIC by agar dilution method; format: cell-based; conditions: 37° C., 18 hours
Experimental: as §1

Serratia marcesceus S18 = assay: MIC by agar dilution method; format: cell-based; conditions: 37° C., 18 hours
Experimental: as §1

[6] = system: Staphylococcus aureus 209P; assay: MIC by agar dilution method; format: cell-based; conditions: 37° C., 18 hours
Experimental: as §1

[7] = system: Citrobacter Freundii GN346; assay: Synergistic effect on MIC, microdilution transfer plate technique; format: cell-based
Proteus vulgaris GN76 = assay: as above; format: cell-based
ddY mice = conditions: mouse, in vivo, ip, 500 mg/kg
[8] = Stability (half life) in phosphate buffers of various pH; format: physicochemical; conditions: for half-life: 28° C.
Experimental: By adding 2% sodium hydroxide or 10% hydrochloric acid, the pH of 0.05 M phosphate buffer is adjusted to 4, 5, 6, 7, 8 and 9, respectively, and distributed into test tubes in an amount of 3 ml. Concentrated solution of antibiotic OA-6129A (0.05 ml) is added to each test tube and allowed to stand in a thermostatic chamber of 28° C. The time course curve of the concentration decrease of antibiotic OA-6129A is drawn by spectrophotometric measurement at 300 nm, from which the half life of the antibiotic at the indicated pH is calculated. As a control, antibiotic PS-5, a carbapenem compound described in the above-cited reference is simultaneously tested.

[9] = Physicochemical properties; conditions: pale yellow powder
P. sp. P22 = assay: MIC by agar dilution method; format: cell-based; conditions: 37° C., 18 hours
Experimental: as §1

[10] = OA-6129A 25 combined with CER <5

CC[C@H]1C(=O)N2C(C(=O)O)=C(SCCNC(=O)CCNC(=O)C(O)C(C)(C)CO)C[C@H]12 (relative stereo) [OA-6129A]
MIC (Alcaligenes Faecolis A1): 1.56 µg/mL (≈ 3.41 µM)
MIC ([1]; Bacillus, ATCC6633, 18 h): 0.39 µg/mL (≈ 0.852 µM)
MIC [2]: 50 µg/mL (≈ 109 µM)
MIC (Comamonas terrigena B996): 0.05 µg/mL (≈ 0.109 µM)
MIC (E. coli RGN823): 12.5 µg/mL (≈ 27.3 µM)
MIC (Ent. cloacae 45): 50 µg/mL (≈ 109 µM)
MIC (Ent. sp. E8): 12.5 µg/mL (≈ 27.3 µM)
MIC [3]: 25 µg/mL (≈ 54.6 µM)
MIC (Escherichia coli K-12): 12.5 µg/mL (≈ 27.3 µM)
MIC [4]: 50 µg/mL (≈ 109 µM)
MIC (P. rettgeri P7): 25 µg/mL (≈ 54.6 µM)
MIC (P. vulgaris GN76): 100 µg/mL (≈ 219 µM)
MIC (Proteus mirabilis P6): 50 µg/mL (≈ 109 µM)
MIC (Providencia sp. P8): 12.5 µg/mL (≈ 27.3 µM)
MIC (Ps. aeruginosa NCTC10490): > 100 µg/mL
MIC [5]: > 100 µg/mL
MIC (S. aureus Russell; S. aureus Russell, agar dilution, 37° C., 18 hours, read-out: MIC): 0.78 µg/mL (≈ 1.7 µM)
MIC (S. aureus Smith): 1.56 µg/mL (≈ 3.41 µM)
MIC (S. epidermidis): 1.56 µg/mL (≈ 3.41 µM)
MIC (Sarcina lutea S19): 0.78 µg/mL (≈ 1.7 µM)
MIC (Ser. marcesceus T55): 100 µg/mL (≈ 219 µM)
MIC (Serratia marcesceus S18): 100 µg/mL (≈ 219 µM)
MIC [6]: 0.78 µg/mL (≈ 1.7 µM)
MIC ([7]; Citrobacter freundii, GN346, alone, heart infusion broth, 10^5 cells/ml): 50 µg/mL
FIC index ([7]; OA-6129A 1.56 combined with ABPC […]): 1.03
FIC index ([7]; OA-6129A 1.56 combined with CER 1250): 1.03
FIC index ([7]; OA-6129A 3.13 combined with ABPC 625): 0.63
FIC index ([7]; OA-6129A 3.13 combined with CER 625): 0.63
FIC index ([7]; OA-6129A 6.25 combined with ABPC […]): 0.38
FIC index ([7]; OA-6129A 6.25 combined with CER 313): 0.38
FIC index ([7]; OA-6129A 12.5 combined with ABPC […]): 0.50
FIC index ([7]; OA-6129A 12.5 combined with CER 313): 0.50
FIC index ([7]; OA-6129A 25 combined with ABPC <5): 0.50
FIC index [7, 10]: 0.50
FIC index (Proteus vulgaris GN76; OA-6129A 1.56 combined with ABPC (printed 3.3)): 0.28
FIC index (Proteus vulgaris GN76; OA-6129A 1.56 combined with CER 313): 0.28
FIC index (Proteus vulgaris GN76; OA-6129A 3.13 combined with ABPC 156): 0.19
FIC index (Proteus vulgaris GN76; OA-6129A 3.13 combined with CER 156): 0.19
FIC index (Proteus vulgaris GN76; OA-6129A 6.25 combined with ABPC 39): 0.16
FIC index (Proteus vulgaris GN76; OA-6129A 6.25 combined with CER 39): 0.16
FIC index (Proteus vulgaris GN76; OA-6129A 12.5 combined with ABPC 10): 0.26
FIC index (Proteus vulgaris GN76; OA-6129A 12.5 combined with CER 20): 0.27
FIC index (Proteus vulgaris GN76; OA-6129A 25 combined with ABPC 10): 0.51
FIC index (Proteus vulgaris GN76; [10]): 0.50
MIC (Proteus vulgaris GN76; Proteus vulgaris, GN76, alone, heart infusion broth, 10^5 cells/ml): 50 µg/mL
acute toxicity (ddY mice): no acute toxicity is observed
half-life ([8]; pH 4, 0.05 M phosphate buffer): 1.05 h
half-life ([8]; pH 5, 0.05 M phosphate buffer): 4.07 h
half-life ([8]; pH 6, 0.05 M phosphate buffer): 21.2 h
half-life ([8]; pH 7, 0.05 M phosphate buffer): 57.7 h
half-life ([8]; pH 8, 0.05 M phosphate buffer): 128 h
half-life ([8]; pH 9, 0.05 M phosphate buffer): 132 h
hygroscopicity [9]: hygroscopic

CC(OS(=O)(=O)O)[C@@H]1C(=O)N2C(C(=O)O)=C(SCCNC(=O)CCNC(=O)C(O)C(C)(C)CO)C[C@H]12 (relative stereo) [OA-6129C]
MIC (Alcaligenes Faecolis A1): 0.39 µg/mL (≈ 0.704 µM)
MIC ([1]; ATCC6633, Bacillus subtillis ATCC 6633, agar dilution, 37° C., 18 hours, read-out: MIC): 0.1 µg/mL (≈ 0.181 µM)
MIC [2]: 50 µg/mL (≈ 90.3 µM)
MIC (Comamonas terrigena B996): 0.1 µg/mL (≈ 0.181 µM)
MIC (E. coli RGN823): 0.39 µg/mL (≈ 0.704 µM)
MIC (Ent. cloacae 45): 50 µg/mL (≈ 90.3 µM)
MIC (Ent. sp. E8): 1.56 µg/mL (≈ 2.82 µM)
MIC [3]: 6.25 µg/mL (≈ 11.3 µM)
MIC (Escherichia coli K-12): 0.78 µg/mL (≈ 1.41 µM)
MIC [4]: 12.5 µg/mL (≈ 22.6 µM)
MIC (P. rettgeri P7): 0.2 µg/mL (≈ 0.361 µM)
MIC (P. sp. P22): 0.78 µg/mL (≈ 1.41 µM)
MIC (P. vulgaris GN76): 1.56 µg/mL (≈ 2.82 µM)
MIC (Proteus mirabilis P6): 0.78 µg/mL (≈ 1.41 µM)
MIC (Providencia sp. P8): 0.2 µg/mL (≈ 0.361 µM)
MIC (Ps. aeruginosa NCTC10490): > 50 µg/mL
MIC [5]: 50 µg/mL (≈ 90.3 µM)
MIC (S. aureus Russell; 18 h): 3.13 µg/mL (≈ 5.65 µM)
MIC (S. aureus Smith): 0.78 µg/mL (≈ 1.41 µM)
MIC (S. epidermidis): 3.13 µg/mL (≈ 5.65 µM)
MIC (Sarcina lutea S19): 0.78 µg/mL (≈ 1.41 µM)
MIC (Ser. marcesceus T55): 12.5 µg/mL (≈ 22.6 µM)
MIC (Serratia marcesceus S18): 12.5 µg/mL (≈ 22.6 µM)
MIC [6]: 0.1 µg/mL (≈ 0.181 µM)
acute toxicity (ddY mice): no acute toxicity is observed
stability relative to OA-6129A ([8]; phosphate buffer, pH 4 to 9, 28° C.): substantially the same stability as antibiotic OA-6129A

Reference: patent US4426390A, “Novel β-lactam compounds, process for producing thereof, and use thereof as medicines” (Sanraku-Ocean Co., Ltd., priority 1980, dated 1984)
